In publication PMC11243039, “Antimicrobial, Antioxidant, and Antityrosinase Activities of Morina persica L. and Its Isolated Compounds” (Molecules, 2024):
Converted amounts (≈) assume the structure as drawn.

Molecular target: T1, mushroom tyrosinase
T1 construct: gene PPO3; native mushroom enzyme preparation
Assay: absorbance at […] nm, L-DOPA oxidation (modified Masuda method)
Assay type: biochemical
Conditions: L-DOPA substrate, phosphate buffer pH 6.8, 23 °C, 10 min preincubation

Row | IC50 | Compound
1 | 115.2 ± 0.8 µg/mL (≈ 189 µM) | C[C@@H]1O[C@@H](OC[C@H]2O[C@@H](Oc3c(-c4ccc(O)c(O)c4)oc4cc(O)cc(O)c4c3=O)[C@H](O)[C@@H](O)[C@@H]2O)[C@H](O)[C@H](O)[C@H]1O [MP-2, Quercetin-3-O-rutinoside]
2 | 297.9 ± 1.2 µg/mL (≈ 664 µM) | O=c1c(O[C@@H]2O[C@H](CO)[C@@H](O)[C@H](O)[C@H]2O)c(-c2ccc(O)cc2)oc2cc(O)cc(O)c12 [MP-1, Kaempferol-3-O-β-glucopyranoside]
